Measurements published in patent publication US10947188B2, “Small molecule ferroptosis inducers” (THE TRUSTEES OF COLUMBIA UNIVERSITY IN THE CITY OF NEW YORK, priority 2016, dated 2021).

Legend:
[1] = tested on: BJeLR; test: Modulatory profiling: Alamar Blue viability, lethal compound cotreated with death modulator (EC50, AUC); assay type: cell-based, human; parameters: AUC, modulator BJ.Gd3+ / AUC, modulator BJ.LNAME / AUC, modulator BJ.Lmin / AUC, modulator BJ.3MA / AUC, modulator BJ.ALLN / AUC, modulator BJ.Boc D / AUC, modulator BJ.CHX / AUC, modulator BJ.Co2+ / AUC, modulator BJ.Nec-1 / AUC, modulator BJ.Pepstatin / AUC, modulator BJ.TLCK / AUC, modulator BJ.atoc / AUC, modulator BJ.trolox / AUC, modulator BJ.zVAD: unit not given beside the values; settings: BJeLR cells, modulatory profile value (AUC); for AUC, modulator BJ.3MA: lethal compound cotreated with modulator 3MA; for AUC, modulator BJ.ALLN: lethal compound cotreated with modulator ALLN; for AUC, modulator BJ.Boc D: lethal compound cotreated with modulator Boc D; for AUC, modulator BJ.CHX: lethal compound cotreated with modulator CHX; for AUC, modulator BJ.Co2+: lethal compound cotreated with modulator Co2+; for AUC, modulator BJ.DPQ: lethal compound cotreated with modulator DPQ; for AUC, modulator BJ.Gd3+: lethal compound cotreated with modulator Gd3+; for AUC, modulator BJ.LNAME: lethal compound cotreated with modulator LNAME; for AUC, modulator BJ.Lmin/NAD+: lethal compound cotreated with modulator Lmin/NAD+; for AUC, modulator BJ.Lmin: lethal compound cotreated with modulator Lmin; for AUC, modulator BJ.NAD+: lethal compound cotreated with modulator NAD+; for AUC, modulator BJ.NMMA: lethal compound cotreated with modulator NMMA; for AUC, modulator BJ.Nec-1: lethal compound cotreated with modulator Nec-1; for AUC, modulator BJ.Pepstatin: lethal compound cotreated with modulator Pepstatin; for AUC, modulator BJ.TLCK: lethal compound cotreated with modulator TLCK; on AUC, modulator BJ.3MA: reference of the scale not given here; on AUC, modulator BJ.ALLN: reference of the scale not given here; on AUC, modulator BJ.Boc D: reference of the scale not given here; on AUC, modulator BJ.CHX: reference of the scale not given here; on AUC, modulator BJ.Co2+: reference of the scale not given here; on AUC, modulator BJ.DPQ: reference of the scale not given here; on AUC, modulator BJ.Gd3+: reference of the scale not given here; on AUC, modulator BJ.LNAME: reference of the scale not given here; on AUC, modulator BJ.NAD+: reference of the scale not given here; on AUC, modulator BJ.NMMA: reference of the scale not given here; on AUC, modulator BJ.Nec-1: reference of the scale not given here; on AUC, modulator BJ.Pepstatin: reference of the scale not given here; on AUC, modulator BJ.TLCK: reference of the scale not given here
[2] = tested on: HT-1080; test: as above; assay type: cell-based; parameters: AUC, modulator HT.3MA / AUC, modulator HT.ALLN / AUC HT.ATA / AUC HT.ActD / AUC HT.BHA / AUC HT.BHT / AUC HT.BocD / AUC HT.CHX / AUC HT.Co2+ / AUC HT.DPQ / AUC HT.EGTA / AUC HT.Lmim / AUC HT.NAD+ / AUC HT.Nec-1 / AUC HT.SP600125 / AUC HT.TLCK / AUC HT.U0126: unit not given beside the values; settings: for AUC HT.ATA: HT-1080, modulator ATA; for AUC HT.ActD: HT-1080, modulator ActD; for AUC HT.BHA: HT-1080, modulator BHA; for AUC HT.BHT: HT-1080, modulator BHT; for AUC HT.BocD: HT-1080, modulator BocD; for AUC HT.CHX: HT-1080, modulator CHX; for AUC HT.Co2+: HT-1080, modulator Co2+; for AUC HT.CspA: HT-1080, modulator CspA; for AUC HT.DPQ: HT-1080, modulator DPQ; for AUC HT.EGTA: HT-1080, modulator EGTA; for AUC HT.Gd3+: HT-1080, modulator Gd3+; for AUC HT.LNAME: HT-1080, modulator LNAME; for AUC HT.Lmim: HT-1080, modulator Lmim; for AUC HT.NAD+: HT-1080, modulator NAD+; for AUC HT.NMMA: HT-1080, modulator NMMA; for HT.atoc (AUC) / HT.bCarotene (AUC) / HT.deferox (AUC) / HT.digoxin (AUC) / HT.trolox (AUC) / HT.zVAD (AUC): HT-1080; for HT.atoc (AUC): modulator atoc; for HT.bCarotene (AUC): modulator bCarotene; for HT.deferox (AUC): modulator deferox; for HT.digoxin (AUC): modulator digoxin; for HT.trolox (AUC): modulator trolox; for HT.zVAD (AUC): modulator zVAD; on AUC HT.BHA: reference of the scale not given here; on AUC HT.EGTA: reference of the scale not given here

SMILES | AUC, modulator BJ.3MA [1] | AUC, modulator BJ.ALLN [1] | AUC, modulator BJ.Boc D [1] | AUC, modulator BJ.CHX [1] | AUC, modulator BJ.Co2+ [1] | AUC, modulator BJ.DPQ [1] | AUC, modulator BJ.Gd3+ [1] | AUC, modulator BJ.LNAME [1] | AUC, modulator BJ.Lmin/NAD+ [1] | AUC, modulator BJ.Lmin [1] | AUC, modulator BJ.NAD+ [1] | AUC, modulator BJ.NMMA [1] | AUC, modulator BJ.Nec-1 [1] | AUC, modulator BJ.Pepstatin [1] | AUC, modulator BJ.TLCK [1] | AUC HT.ATA [2] | AUC HT.ActD [2] | AUC HT.BHA [2] | AUC HT.BHT [2] | AUC HT.BocD [2] | other results
COc1ccc(C(=O)C(CN2CCCC2)c2ccccc2)cc1 (stereo not drawn) [CIL72] | 0.01714 | 0.00459 | 0.02672 | 0.2585 | 0.1176 | −0.01087 | 0.03013 | 0.001053 | 0.07102 | 0.004844 | −0.0366 | 0.01422 | −0.02464 | 0.01988 | 0.03641 | 0.05533 | 0.02924 | −0.04013 | −0.1002 | −0.02415 | AUC HT.CHX [2]: 0.1147; AUC HT.Co2+ [2]: 0.1163; AUC HT.CspA [2]: −0.01912; AUC HT.DPQ [2]: −0.03157; AUC HT.EGTA [2]: 0.009608; AUC HT.Gd3+ [2]: −9.532E−05; AUC HT.LNAME [2]: 0.01226; AUC HT.Lmim [2]: −0.001821; AUC HT.NAD+ [2]: 0.004195; AUC HT.NMMA [2]: −0.004443; HT.atoc (AUC) [2]: −0.02111; HT.bCarotene (AUC) [2]: −0.01233; HT.deferox (AUC) [2]: 0.1972; HT.digoxin (AUC) [2]: −0.01413; HT.trolox (AUC) [2]: −0.03591; HT.zVAD (AUC) [2]: 0.05314
Cc1[nH]c2c(ccc3ccccc32)c1C1C(CCN)C1(C)C (stereo not drawn) [CIL74] | 0.03615 | −0.02536 | 0.04324 | 0.01466 | 0.2135 | −0.02906 | 0.02963 | 0.001619 | 0.07154 | 0.007766 | −0.05906 | 0.01059 | −0.02489 | 0.08294 | −0.02942 | 0.01362 | 0.02636 | −0.08659 | −0.04572 | 0.01242 | AUC HT.CHX [2]: 0.02524; AUC HT.Co2+ [2]: 0.03244; AUC HT.CspA [2]: −0.004622; AUC HT.DPQ [2]: 0.04847; AUC HT.EGTA [2]: −0.02674; AUC HT.Gd3+ [2]: −0.008213; AUC HT.LNAME [2]: 0.01925; AUC HT.Lmim [2]: 0.02034; AUC HT.NAD+ [2]: 0.07664; AUC HT.NMMA [2]: 9.3282E−05; HT.atoc (AUC) [2]: 0.07412; HT.bCarotene (AUC) [2]: −0.02032; HT.deferox (AUC) [2]: −0.008945; HT.digoxin (AUC) [2]: −0.02586; HT.trolox (AUC) [2]: −0.0236; HT.zVAD (AUC) [2]: 0.01022
C=CCC1(Cl)C(=O)C(Cl)=C(n2ccnc2)C1(OC)OC (stereo not drawn) [CIL76] | −0.03638 | −0.0536 | 0.03237 | 0.2608 | 0.1676 | 0.007351 | 0.01565 | 0.004345 | −0.02656 | −0.005829 | 0.004895 | −0.01937 | −0.0283 | 0.0213 | −0.008689 | 0.04513 | 0.04286 | 0.000578 | −0.08655 | −0.02767 | AUC HT.CHX [2]: 0.1505; AUC HT.Co2+ [2]: 0.1531; AUC HT.CspA [2]: −0.005998; AUC HT.DPQ [2]: 0.01554; AUC HT.EGTA [2]: −0.02151; AUC HT.Gd3+ [2]: −0.0293; AUC HT.LNAME [2]: 0.0222; AUC HT.Lmim [2]: 0.007964; AUC HT.NAD+ [2]: 0.00781; AUC HT.NMMA [2]: −0.007942; HT.atoc (AUC) [2]: 0.003265; HT.bCarotene (AUC) [2]: −0.00713; HT.deferox (AUC) [2]: 0.1376; HT.digoxin (AUC) [2]: 0.01032; HT.trolox (AUC) [2]: −0.02707; HT.zVAD (AUC) [2]: 0.032
